These results are taken from patent US9549911B2, “Ginger metabolites and uses thereof” (North Carolina A&T State University, priority 2012, dated 2017).

For data set [1], the system named is H-1299 cells. Nature of the data set: TUNEL apoptosis assay (Part 2). As to conditions: H-1299, 20 or 40 μM, 24 hours. Type of data set: cell-based, human.
Another data set concerns HT-29 colon cancer cells. Nature of the data set: Apoptosis by FACS analysis of propidium iodide-stained cells. It is filed as cell-based, human. As to conditions: HT-29, 40 μM, 24 hours. On the procedure:
(§1) Apoptosis was determined by FACS analysis of propidium iodide (PI)-stained cells. In brief, cells were trypsinized, washed with cold phosphate-buffered saline (PBS), fixed in ice-cold 70% ethanol for 1 hour, and then resuspended in 2 mL PBS supplemented with 10 μL RNase (100 mg/ml) and incubated at 37° C. for 30 min. After incubation, DNA was stained with 1 mg/mL PI in PBS. Cell staining was analyzed using a Cell Lab Quanta™ SC flow cytometer (Beckman Coulter, Danvers, Mass.) and data were processed using FCS Express software (DeNovo Software, Los Angeles, Calif.). The percentage of apoptotic cells in each sample was determined based on the sub G0 peaks detected in monoparametric histograms.

Data set [2] deals with HCT-116 colon cancer cells. Described as above. It is filed as cell-based, human. The conditions noted are these: HCT-116, 40 μM, 24 hours. On the procedure: as §1
Data set [3] has as its system H-1299 cells. Nature of the data set: TUNEL apoptosis assay (Part 1). It is filed as cell-based, human. The conditions noted are these: 24 h. On the procedure:
(§2) HCT-116 and H-1299 cells were seeded in six-well plates at 1.0×10^5 cells/well and were incubated at 37° C. in a 5% CO2 incubator. After 24 h, fresh media supplemented with DMSO (control), [6]-shogaol (10 or 20 μM), M9 (40 or 80 μM), or M11 (40 or 80 μM) were added to the wells. After 24-h incubation, cells were washed and pretreated for 15 min at room temperature with a solution of 20 μg/ml proteinase K. Cells were then washed twice with PBS pH 7.4 and were fixed for 10 min at room temperature using 10% neutral formaldehyde solution. After two washes in distilled H2O, cells were resuspended in 100 μl of distilled H2O and were applied on silanized microscope slides. Slides were incubated overnight at 37° C. and were washed twice with PBS. Terminal deoxynucleotidyl transferase deoxyuridine triphosphate nick-end labeling (TUNEL) assay was then performed according to the manufacturer's protocol. Cells were observed under 400× power using a Zeiss A1 microscope (Carl Zeiss, Inc., Thornwood, N.Y.).
(§3) Ten fields per slide were evaluated, and TUNEL-positive cells (with brown coloration in the nucleus) were expressed as a percentage of the total number of cells contained in a field. Statistical Analysis. For simple comparisons between two groups, twotailed Student's t test was used. A p value of less than 0.05 was considered statistically significant in all the tests.

The test system of the next data set is HCT-116 cells. Nature of the data set: TUNEL apoptosis assay (Part 1). It is filed as cell-based, human. As to conditions: 24 h. As for the experimental part:
as §2, §3

Data set [4] is described as follows: Kinetic study of [6]-shogaol metabolism to M6 in liver microsomes. It is filed as in vitro ADME, rat. The conditions noted are these: rat liver microsomes 0.1 mg/mL, 30 min. On the procedure: (§4) All incubations were performed in triplicate.
Assay in data set [5]: as above
Type of data set: in vitro ADME, mouse. As to conditions: mouse liver microsomes 0.1 mg/mL, 30 min; read-out: Km of M6 formation. On the procedure:
as §4

Assay in data set [6]: as above
It is filed as in vitro ADME, monkey. The conditions noted are these: monkey liver microsomes 0.1 mg/mL, 30 min. On the procedure:
as §4

Where two headings read alike, the source gives them in different places.

In the case of `CCCCCC(CC(=O)CCc1ccc(O)c(OC)c1)SC[C@H](N)C(=O)O` (some centres unmarked) [M2, 5-cysteinyl-[6]-shogaol], the “induction of apoptosis (TUNEL) versus DMSO” value with H-1299 cells [1] is recorded as “Apoptosis was observed”. Moreover, the results for the “apoptotic cells (FACS, PI)” value (in the data set on HT-29 colon cancer cells; in data set [2]) were 14.38% and 26.34%, respectively.
On to `CCCCC/C=C/C(=O)CCc1ccc(O)c(OC)c1` [[6]-shogaol, reference compound], for which the “apoptotic cells (TUNEL)” value was found to be 5.2% with H-1299 cells [3] (H-1299, 10 μM); 31.6% in the data set with H-1299 cells [3] (H-1299, 20 μM); 10.3% with HCT-116 cells (HCT-116, 10 μM); 31.2% in the data set with HCT-116 cells (HCT-116, 20 μM). For the same compound, the “Vmax of M6 formation” value is recorded as 8.19+/−0.48 nanomoles per minute per milli in data set [4] and 2.99+/−0.28 nanomoles per minute per milli in data set [6]. The Michaelis-Menten constant (Km) worked out at 75.7 µM in data set [5] and 424 µM in data set [6] (read-out: Km of M6 formation).
